Activity calls are given as the source filed them. No cut-off for these calls is given here.
Assays:
Nucleic Acid [1] = experiment: Induction of Escherichia coli pUC18 DNA condensation at 300 uM after 5 mins by agarose gel electrophoresis; assay type: nucleic-acid assay
Nucleic Acid [2] = experiment: Induction of Escherichia coli pUC18 DNA condensation at above 120 uM after 5 mins by agarose gel electrophoresis; assay type: nucleic-acid assay
Nucleic Acid [3] = experiment: Induction of Escherichia coli pUC18 DNA condensation assessed as hydrodynamic diameter at 120 uM after 5 mins by dynamic light scattering analysis; assay type: nucleic-acid assay
[4] = Cytotoxicity against human T98G cells assessed as cell viability at 120 uM after 24 hrs by MTT assay; assay type: cell-based; settings: read-out: Activity
Nucleic Acid [5] = experiment: Induction of Escherichia coli pUC18 DNA condensation assessed as diameter of DNA nano particles at 60 uM after 5 mins by atomic force microscopy; assay type: nucleic-acid assay
Nucleic Acid [6] = experiment: Induction of Escherichia coli pUC18 DNA condensation assessed as hydrodynamic diameter at 60 uM after 5 mins by dynamic light scattering analysis; assay type: nucleic-acid assay
Nucleic Acid [7] = experiment: Induction of Escherichia coli pUC18 DNA condensation at 80 uM after 5 mins by agarose gel electrophoresis in presence of 10 to 400 mM NaCl; assay type: nucleic-acid assay
Nucleic Acid [8] = experiment: Induction of Escherichia coli pUC18 DNA condensation assessed as diameter of DNA nano particles at 120 uM after 5 mins by atomic force microscopy; assay type: nucleic-acid assay
[9] = Cytotoxicity against human HepG2 cells assessed as cell viability at 120 uM after 24 hrs by MTT assay; assay type: cell-based; settings: read-out: Activity
Nucleic Acid [10] = experiment: Reversible condensation of Escherichia coli pUC18 DNA assessed as release of condensed DNA at 120 uM incubated for 5 mins followed by addition of […] NaCl by agarose gel electrophoresis; assay type: nucleic-acid assay
Nucleic Acid [11] = experiment: Binding affinity to calf thymus DNA assessed as fluorescence quenching after 2 mins by ethidium bromide displacement assay; assay type: nucleic-acid assay; settings: Bos taurus
Nucleic Acid [12] = experiment: Induction of Escherichia coli pUC18 DNA condensation at 120 uM after 5 mins by agarose gel electrophoresis; assay type: nucleic-acid assay
Nucleic Acid [13] = experiment: Intercalation at calf thymus DNA assessed as increase in viscosity by viscosity titration assay; assay type: nucleic-acid assay; settings: Bos taurus
T98G = experiment: Cytotoxicity against human T98G cells at 30 to 120 uM after 24 hrs by MTT assay; assay type: cell-based
HepG2 = experiment: Cytotoxicity against human HepG2 cells at 30 to 120 uM after 24 hrs by MTT assay; assay type: cell-based; settings: hepg2, 24 h

| SMILES | Activity (Nucleic Acid [1]) | Activity (Nucleic Acid [3]) | Activity (Nucleic Acid [5]) | Activity (Nucleic Acid [6]) | Activity (Nucleic Acid [7]) | Activity (Nucleic Acid [8]) | Activity (Nucleic Acid [10]) | Kb (Nucleic Acid [11]) | Activity (Nucleic Acid [12]) | Activity (Nucleic Acid [13]) | also measured |
| --- | --- | --- | --- | --- | --- | --- | --- | --- | --- | --- | --- |
| c1c(CN2CCCNCCCNCCC2)nnn1CCCn1cc(CN2CCCNCCCNCCC2)nn1 | inactive |  |  |  |  |  |  |  |  |  |  |
| c1ccc2c(CN3CCCNCCCNCCC3)cccc2c1 | inactive |  |  |  |  |  |  |  |  |  |  |
| c1ccc2c(CCCN3CCCNCCCNCCC3)cccc2c1 |  |  |  |  |  |  |  |  |  |  | Activity (Nucleic Acid [2]): Active |
| c1ccc2c(CC(Cn3cc(CN4CCCNCCCNCCC4)nn3)Cn3cc(CN4CCCNCCCNCCC4)nn3)cccc2c1 |  | 222 nm | 49 nm | 181 nm | inactive | 56 nm | Active | 0.98 ×10⁵ /M | Active | inactive | viability at 24 h, 120 µM [4]: 88%; viability at 24 h, 120 µM [9]: 64% |
| c1ccc2c(CC(CN3CCCNCCCNCCC3)CN3CCCNCCCNCCC3)cccc2c1 |  | 146 nm | 47 nm | 105 nm | inactive | 55 nm | Active | 1.2 ×10⁵ /M | Active | inactive | Activity (T98G): Toxic; Activity (HepG2): Toxic |
| C1CNCCCN(CCCN2CCCNCCCNCCC2)CCCNC1 | inactive |  |  |  |  |  |  |  |  |  |  |

Source: ChEMBL document CHEMBL1949663, “Effective and reversible DNA condensation induced by bifunctional molecules containing macrocyclic polyamines and naphthyl moieties” (Bioorg Med Chem, 2012)
